{"source": "ChEMBL document CHEMBL1201862", "about": "“PubChem BioAssay data set” (2004)", "key": {"[1]": {"target": "T1, Sphingosine 1-phosphate receptor 4 (Homo sapiens, UniProt O95977)", "T1 sequence (O95977 whole entry)": "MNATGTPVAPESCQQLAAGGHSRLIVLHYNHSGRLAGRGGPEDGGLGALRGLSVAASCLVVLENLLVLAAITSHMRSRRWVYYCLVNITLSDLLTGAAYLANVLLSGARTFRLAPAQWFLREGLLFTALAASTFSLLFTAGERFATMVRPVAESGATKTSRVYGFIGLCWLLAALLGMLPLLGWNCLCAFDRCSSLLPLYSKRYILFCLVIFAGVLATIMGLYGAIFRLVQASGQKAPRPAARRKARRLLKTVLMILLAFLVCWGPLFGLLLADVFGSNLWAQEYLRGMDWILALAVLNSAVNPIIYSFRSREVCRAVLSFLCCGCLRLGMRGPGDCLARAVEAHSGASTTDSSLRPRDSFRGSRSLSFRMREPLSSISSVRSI", "test": "Fluorescence dose response cell-based high throughput screening assay for antagonists of the Sphingosine 1-Phosphate Receptor 4 (S1P4). [Related pubchem assays: 1524 (Confirmation in triplicates.), 1510 (Primary screen.)]", "format": "functional"}, "[2]": {"test": "growth suppression of PTEN-null colon cells, dose response, cell-based, HCT116 PTEN knockout (AID 1047);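 further: cells exposed to compound for 60 hours before readout; potency for loss of cell viability measured by luminescence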", "format": "functional"}, "[3]": {"test": "growth suppression of beta-catenin-knockout colon cells, dose response, cell-based, HCT116, human colon tumor (AID 1045);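 further: cells exposed to compound for 60 hours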", "format": "functional"}, "[4]": {"target": "Sphingosine 1-phosphate receptor 1 (Homo sapiens, UniProt P21453)", "sequence (P21453 whole entry)": "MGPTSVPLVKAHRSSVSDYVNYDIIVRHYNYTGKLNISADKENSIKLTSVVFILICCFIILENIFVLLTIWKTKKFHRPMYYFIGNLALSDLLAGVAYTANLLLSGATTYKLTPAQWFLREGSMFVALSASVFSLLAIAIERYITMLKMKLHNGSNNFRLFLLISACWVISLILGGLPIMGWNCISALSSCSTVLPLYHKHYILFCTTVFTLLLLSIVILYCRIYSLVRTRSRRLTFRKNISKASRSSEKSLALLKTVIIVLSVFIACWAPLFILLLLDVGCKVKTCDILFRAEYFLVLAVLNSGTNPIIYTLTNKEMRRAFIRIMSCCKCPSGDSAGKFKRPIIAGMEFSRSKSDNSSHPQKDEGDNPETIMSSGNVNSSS", "format": "functional"}, "[5]": {"target": "T1, Sphingosine 1-phosphate receptor 4", "test": "Late stage fluorescence dose response cell-based screening assay for antagonists of the Sphingosine 1-Phosphate Receptor 4 (S1P4). [Related pubchem assays: 1524 (Confirmation screen (S1P4 antagonists).), 1510 (Primary screen (S1P4 antagonists).), 1853 (Summary AID (S1P4 antagonists).), 1692 (Dose response screen (S1P4 antagonists).)]", "format": "functional"}, "[6]": {"target": "Voltage-gated inwardly rectifying potassium channel KCNH2 (Homo sapiens, UniProt Q12809)", "sequence (Q12809 whole entry)": "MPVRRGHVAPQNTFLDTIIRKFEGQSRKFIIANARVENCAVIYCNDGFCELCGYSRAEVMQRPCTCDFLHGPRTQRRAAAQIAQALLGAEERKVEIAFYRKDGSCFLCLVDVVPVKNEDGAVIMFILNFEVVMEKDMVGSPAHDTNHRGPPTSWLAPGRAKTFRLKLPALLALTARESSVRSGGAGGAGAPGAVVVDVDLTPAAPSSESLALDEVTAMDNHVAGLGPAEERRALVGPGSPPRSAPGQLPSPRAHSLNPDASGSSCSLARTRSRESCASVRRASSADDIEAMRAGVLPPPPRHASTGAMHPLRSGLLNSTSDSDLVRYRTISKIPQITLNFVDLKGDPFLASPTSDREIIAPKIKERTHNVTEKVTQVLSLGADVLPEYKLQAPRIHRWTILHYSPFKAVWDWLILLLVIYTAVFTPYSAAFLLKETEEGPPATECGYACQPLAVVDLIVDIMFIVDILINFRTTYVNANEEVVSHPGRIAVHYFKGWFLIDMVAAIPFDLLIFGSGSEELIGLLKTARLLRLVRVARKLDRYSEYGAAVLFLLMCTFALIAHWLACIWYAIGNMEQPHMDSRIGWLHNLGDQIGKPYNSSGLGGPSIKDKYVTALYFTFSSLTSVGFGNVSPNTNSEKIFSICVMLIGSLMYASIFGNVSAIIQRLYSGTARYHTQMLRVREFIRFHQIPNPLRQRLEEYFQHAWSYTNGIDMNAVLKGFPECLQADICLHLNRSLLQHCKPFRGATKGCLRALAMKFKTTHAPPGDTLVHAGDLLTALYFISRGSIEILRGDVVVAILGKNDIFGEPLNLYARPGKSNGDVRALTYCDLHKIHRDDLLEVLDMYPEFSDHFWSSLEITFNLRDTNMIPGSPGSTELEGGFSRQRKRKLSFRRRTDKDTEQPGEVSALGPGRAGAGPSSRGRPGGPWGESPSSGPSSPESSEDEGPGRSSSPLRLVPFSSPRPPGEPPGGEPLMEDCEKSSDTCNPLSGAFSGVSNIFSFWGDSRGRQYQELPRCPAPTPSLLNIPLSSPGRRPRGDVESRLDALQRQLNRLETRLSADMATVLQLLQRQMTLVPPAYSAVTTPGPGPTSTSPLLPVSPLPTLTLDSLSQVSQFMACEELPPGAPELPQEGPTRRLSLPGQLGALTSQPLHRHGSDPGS", "test": "hERG protection from proarrhythmic block, potency, dose response, cell-based, thallium flux (AID 2121)", "format": "ADME"}, "[7]": {"target": "T2, Polyadenylate-binding protein 1 (Homo sapiens, UniProt P11940)", "T2 sequence (P11940 whole entry)": "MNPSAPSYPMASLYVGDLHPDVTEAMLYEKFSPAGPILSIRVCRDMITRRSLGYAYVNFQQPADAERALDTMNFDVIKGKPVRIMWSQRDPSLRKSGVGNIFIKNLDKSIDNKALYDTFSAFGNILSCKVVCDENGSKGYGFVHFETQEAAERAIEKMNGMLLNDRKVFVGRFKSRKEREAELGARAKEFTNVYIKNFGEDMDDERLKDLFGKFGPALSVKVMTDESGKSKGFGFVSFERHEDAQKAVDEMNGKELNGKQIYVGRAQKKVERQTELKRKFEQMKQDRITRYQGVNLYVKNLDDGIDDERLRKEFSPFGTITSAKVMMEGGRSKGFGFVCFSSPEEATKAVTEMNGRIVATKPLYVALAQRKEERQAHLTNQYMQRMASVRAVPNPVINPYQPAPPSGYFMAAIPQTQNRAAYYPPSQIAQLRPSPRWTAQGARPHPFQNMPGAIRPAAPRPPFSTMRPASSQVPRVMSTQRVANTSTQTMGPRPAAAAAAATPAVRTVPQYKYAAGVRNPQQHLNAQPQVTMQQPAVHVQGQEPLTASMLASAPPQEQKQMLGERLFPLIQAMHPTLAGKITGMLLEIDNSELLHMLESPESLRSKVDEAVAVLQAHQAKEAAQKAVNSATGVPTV", "test": "PABP1 MLLE–PAM2 interaction inhibitors, dose response, miRNA deadenylation inhibitor project, biochemical, fluorescence polarization, Cy5-PAM2 peptide, secondary (AID 602260)", "format": "functional", "conditions": "read-out: IC50_Mean"}, "[8]": {"target": "T2, Polyadenylate-binding protein 1", "test": "PABP1 MLLE–PAM2 binding inhibitor potency, dose response, biochemical, fluorescence polarization, FITC-PAM2 peptide (AID 602259)", "format": "functional", "conditions": "read-out: IC50_Mean"}, "Bcl-2-like protein 1": {"target": "Bcl-2-like protein 1 (Homo sapiens, UniProt Q07817)", "sequence (Q07817 whole entry)": "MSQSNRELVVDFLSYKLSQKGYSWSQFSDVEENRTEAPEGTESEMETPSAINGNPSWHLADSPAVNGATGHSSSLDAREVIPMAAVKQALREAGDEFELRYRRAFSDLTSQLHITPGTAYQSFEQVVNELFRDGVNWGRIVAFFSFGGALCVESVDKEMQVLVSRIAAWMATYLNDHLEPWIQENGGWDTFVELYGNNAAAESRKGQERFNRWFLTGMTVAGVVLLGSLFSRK", "test": "BCL-XL inhibitors, dose response, selectivity assay for MCL1 inhibitor project, biochemical, fluorescence polarization, 1536-well (AID 2218)"}, "Caspase-6": {"target": "T3, Caspase-6 (Homo sapiens, UniProt P55212)", "T3 sequence (P55212 whole entry)": "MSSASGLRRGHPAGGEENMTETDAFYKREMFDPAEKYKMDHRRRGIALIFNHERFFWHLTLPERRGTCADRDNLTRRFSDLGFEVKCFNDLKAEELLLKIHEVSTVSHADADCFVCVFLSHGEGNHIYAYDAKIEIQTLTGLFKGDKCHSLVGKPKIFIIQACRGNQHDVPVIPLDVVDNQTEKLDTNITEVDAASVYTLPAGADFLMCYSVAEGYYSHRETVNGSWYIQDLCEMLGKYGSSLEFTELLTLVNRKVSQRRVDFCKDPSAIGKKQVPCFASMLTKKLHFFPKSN", "test": "human caspase-6 inhibitors, dose response, biochemical, VEID-R110 fluorescence, cherry-pick (AID 720632)"}, "[9]": {"target": "Induced myeloid leukemia cell differentiation protein Mcl-1 (Homo sapiens, UniProt Q07820)", "sequence (Q07820 whole entry)": "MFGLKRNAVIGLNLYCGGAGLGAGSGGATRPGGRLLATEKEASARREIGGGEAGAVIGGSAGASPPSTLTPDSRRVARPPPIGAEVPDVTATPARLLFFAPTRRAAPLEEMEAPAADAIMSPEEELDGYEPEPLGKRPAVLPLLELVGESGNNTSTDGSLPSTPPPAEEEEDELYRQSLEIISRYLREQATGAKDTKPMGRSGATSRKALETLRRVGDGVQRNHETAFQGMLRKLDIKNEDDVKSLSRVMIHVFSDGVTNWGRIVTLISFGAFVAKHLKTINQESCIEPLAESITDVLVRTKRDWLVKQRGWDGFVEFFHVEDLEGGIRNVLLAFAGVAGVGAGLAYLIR", "test": "MCL1-BIM BH3 interaction inhibitors, dose response, biochemical, fluorescence polarization, BIM-BH3 peptide, 1536-well (AID 2217)"}, "Albumin": {"target": "Albumin (Bos taurus, UniProt P02769)", "test": "Counterscreen for inhibitors of T-cell receptor (TCR)-CD3 interaction: Fluorescence-based biochemical high throughput dose response assay to identify inhibitors of T-cell receptor (TCR)-CD3 interaction using a TAMRA-labeled BSA probe.", "format": "functional"}, "Ion channel NompC": {"target": "Ion channel NompC (Danio rerio, UniProt Q7T1G6)", "test": "Fluorescence counterscreen assay for TRPML3 agonists: dose response cell-based high-throughput screening assay to identify agonists of the transient receptor potential channel N1 (TRPN1). [Related pubchem assays: 1526, 1424, 1448 ]", "format": "functional"}, "Mucolipin-3": {"target": "Mucolipin-3 (Homo sapiens, UniProt Q8TDD5)", "sequence (Q8TDD5 whole entry)": "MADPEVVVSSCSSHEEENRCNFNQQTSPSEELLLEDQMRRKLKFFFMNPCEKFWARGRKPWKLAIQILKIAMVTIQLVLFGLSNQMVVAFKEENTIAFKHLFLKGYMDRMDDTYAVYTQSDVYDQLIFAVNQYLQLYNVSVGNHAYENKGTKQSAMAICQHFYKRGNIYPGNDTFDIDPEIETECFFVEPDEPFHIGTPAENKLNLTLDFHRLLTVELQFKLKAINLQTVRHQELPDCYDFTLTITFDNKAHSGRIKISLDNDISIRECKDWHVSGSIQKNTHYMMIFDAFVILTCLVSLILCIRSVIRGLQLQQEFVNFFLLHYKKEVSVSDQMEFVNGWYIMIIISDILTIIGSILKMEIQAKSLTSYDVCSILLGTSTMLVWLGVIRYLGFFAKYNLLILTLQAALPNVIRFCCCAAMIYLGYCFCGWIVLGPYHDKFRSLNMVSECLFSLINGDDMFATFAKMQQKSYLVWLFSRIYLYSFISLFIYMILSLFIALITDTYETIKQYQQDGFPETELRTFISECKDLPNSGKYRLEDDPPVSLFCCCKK", "test": "Dose response cell-based high-throughput screening assay for agonists of the transient receptor potential channel ML3 (TRPML3). [Related pubchem assays: 1526, 1424, 1448 ]", "format": "functional"}, "[10]": {"test": "Luminescence Cell-Based Dose Confirmation HTS to Identify Inhibitors of Polyadenylation.", "format": "functional"}, "[11]": {"test": "Luminescence Cell-Based Dose Confirmation to Identify Activators of 5'UTR Stem-Loop Driven Alpha-Synuclein mRNA Translation in H4 Neuroglioblastoma Cells. [Related pubchem assays: 1829 (Project Summary), 1814 (Primary HTS)]", "format": "functional"}, "Cytochrome P450 2D6": {"target": "Cytochrome P450 2D6 (Homo sapiens, UniProt P10635)", "sequence (P10635 whole entry)": "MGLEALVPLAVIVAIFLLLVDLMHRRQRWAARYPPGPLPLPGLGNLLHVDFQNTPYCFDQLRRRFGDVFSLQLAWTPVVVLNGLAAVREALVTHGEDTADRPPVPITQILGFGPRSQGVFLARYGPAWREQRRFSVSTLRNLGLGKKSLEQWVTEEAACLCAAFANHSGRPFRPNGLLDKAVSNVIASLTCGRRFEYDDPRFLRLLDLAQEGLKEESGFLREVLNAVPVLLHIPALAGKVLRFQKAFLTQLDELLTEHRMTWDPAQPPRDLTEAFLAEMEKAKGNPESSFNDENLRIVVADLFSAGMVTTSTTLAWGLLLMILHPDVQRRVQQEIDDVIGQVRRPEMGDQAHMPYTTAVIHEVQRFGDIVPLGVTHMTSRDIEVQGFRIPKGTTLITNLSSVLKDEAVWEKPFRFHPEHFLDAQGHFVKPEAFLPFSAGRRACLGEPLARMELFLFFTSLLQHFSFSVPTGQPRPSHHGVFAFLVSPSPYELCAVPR"}, "H4": {"tested_on": "H4", "test": "Luminescence Cell-Based Dose Response HTS to Identify Activators of 5'UTR Stem-Loop Driven Prion Protein mRNA Translation in H4 Neuroglioblastoma Cells. [Related pubchem assays: 1829 (Project Summary), 1814 (Primary HTS)]", "format": "functional", "conditions": "Homo sapiens"}, "[12]": {"test": "Luminescence Cell-Based Dose Response to Identify Activators of 5'UTR Stem-Loop Driven Prion Protein mRNA Translation in H4-C Neuroglioblastoma Cells. [Related pubchem assays: 1829 (Project Summary), 1814 (Primary HTS)]", "format": "functional"}, "[13]": {"test": "Luminescence Cell-Based Dose Response to Identify Activators of Luciferase Translation or Activity in H4-C Neuroglioblastoma Cells. [Related pubchem assays: 1829 (Project Summary), 1814 (Primary HTS)]", "format": "functional"}, "Cytochrome P450 2C19": {"target": "Cytochrome P450 2C19 (Homo sapiens, UniProt P33261)", "sequence (P33261 whole entry)": "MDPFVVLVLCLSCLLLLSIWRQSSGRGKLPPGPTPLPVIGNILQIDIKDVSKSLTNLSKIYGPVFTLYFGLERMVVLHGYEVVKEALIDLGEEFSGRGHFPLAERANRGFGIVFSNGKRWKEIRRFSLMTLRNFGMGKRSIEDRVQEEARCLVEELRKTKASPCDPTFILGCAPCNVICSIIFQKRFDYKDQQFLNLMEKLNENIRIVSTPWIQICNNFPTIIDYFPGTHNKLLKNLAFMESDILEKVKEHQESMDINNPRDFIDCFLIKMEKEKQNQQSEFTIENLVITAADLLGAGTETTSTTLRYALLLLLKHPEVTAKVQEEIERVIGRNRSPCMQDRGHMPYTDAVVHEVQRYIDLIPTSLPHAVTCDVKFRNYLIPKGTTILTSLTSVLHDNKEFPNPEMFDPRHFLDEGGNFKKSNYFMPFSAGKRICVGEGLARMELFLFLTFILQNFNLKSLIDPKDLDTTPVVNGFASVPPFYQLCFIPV", "test": "Cytochrome panel assay with activity outcomes. Panel member name: p450-cyp2c19 Compounds with AC50 equal or less than 10 uM are considered active", "format": "functional", "conditions": "read-out: AC50"}, "[14]": {"test": "Luminescence Cell-Based Dose Response HTS to Identify Activators of Luciferase Translation or Activity in H4 […] Cells. [Related pubchem assays: 1829 (Project Summary), 1814 (Primary HTS)]", "format": "functional"}, "NADPH oxidase 1": {"target": "T4, NADPH oxidase 1 (Homo sapiens, UniProt Q9Y5S8)", "T4 sequence (Q9Y5S8 whole entry)": "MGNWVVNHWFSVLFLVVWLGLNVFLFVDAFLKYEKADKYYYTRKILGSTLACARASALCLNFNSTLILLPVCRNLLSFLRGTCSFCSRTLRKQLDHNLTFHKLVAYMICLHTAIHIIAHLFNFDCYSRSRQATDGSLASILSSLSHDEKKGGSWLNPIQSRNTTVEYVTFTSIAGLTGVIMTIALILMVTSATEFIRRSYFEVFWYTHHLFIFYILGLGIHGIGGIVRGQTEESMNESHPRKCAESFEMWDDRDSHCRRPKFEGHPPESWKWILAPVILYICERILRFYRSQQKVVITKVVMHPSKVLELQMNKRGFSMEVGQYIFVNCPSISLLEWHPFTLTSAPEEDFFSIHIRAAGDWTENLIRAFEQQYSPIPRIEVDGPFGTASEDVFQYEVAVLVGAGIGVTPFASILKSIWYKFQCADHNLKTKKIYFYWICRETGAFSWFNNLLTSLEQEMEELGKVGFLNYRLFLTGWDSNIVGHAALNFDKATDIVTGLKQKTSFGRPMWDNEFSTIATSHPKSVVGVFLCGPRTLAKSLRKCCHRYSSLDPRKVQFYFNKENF", "format": "functional, cell-based"}}, "note": "The source made the active and inactive calls.", "data": [{"molecule": "O=C(OCn1ncc(Br)c(Br)c1=O)c1c(F)cccc1F", "values": [{"measurement": "IC50", "setting": "[1]", "result": "0.888 µM (active)"}, {"measurement": "EC50", "setting": "[2]", "result": "1.78 µM (active)"}, {"measurement": "EC50", "setting": "[3]", "result": "1.82 µM (active)"}, {"measurement": "IC50", "setting": "[4]", "result": "7.96 µM (active)"}, {"measurement": "IC50", "setting": "[5]", "result": "88.8 µM (not active)"}]}, {"molecule": "Cc1ccc(C)c(NC(=S)NC(=O)c2cncc(Br)c2)c1", "values": [{"measurement": "EC50", "setting": "[6]", "result": "4.77 µM (active)"}, {"measurement": "IC50", "setting": "[7]", "result": "> 66 µM (inactive)"}, {"measurement": "IC50", "setting": "[8]", "result": "> 66 µM (inactive)"}]}, {"molecule": "Cc1ccc(OCC(=O)c2c(N)n(C)c(=O)n(C)c2=O)c([N+](=O)[O-])n1", "values": [{"measurement": "IC50", "setting": "Bcl-2-like protein 1", "result": "21.3 µM (not active)"}, {"measurement": "AC50", "setting": "Caspase-6", "result": "18.9 µM (active)"}, {"measurement": "IC50", "setting": "[9]", "result": "8.63 µM (active)"}, {"measurement": "IC50", "setting": "Albumin", "result": "> 94.1 µM (inactive)"}]}, {"molecule": "CCN(CC)C(=S)SCC(=O)NC12CC3CC(CC(C3)C1)C2", "values": [{"measurement": "EC50", "setting": "Ion channel NompC", "result": "> 29.9 µM (not active)"}, {"measurement": "EC50", "setting": "Mucolipin-3", "result": "14.7 µM (not active)"}]}, {"molecule": "C(=Nc1ncnc2sccc12)NOCc1ccccc1", "values": [{"measurement": "EC50", "setting": "[10]", "result": "> 120 µM (not active)"}]}, {"molecule": "C/C(=N\\OC(=O)c1ccccc1)c1cc(-c2ccc(Cl)cc2)no1", "values": [{"measurement": "EC50", "setting": "[11]", "result": "4.74 µM (active)"}, {"measurement": "AC50", "setting": "Cytochrome P450 2D6", "result": "inconclusive"}, {"measurement": "EC50", "setting": "H4", "result": "68.1 µM (active)"}, {"measurement": "EC50", "setting": "[12]", "result": "1.28 µM (active)"}, {"measurement": "EC50", "setting": "[13]", "result": "1.04 µM (active)"}, {"measurement": "AC50", "setting": "Cytochrome P450 2C19", "result": "22.4 µM (inconclusive)"}, {"measurement": "EC50", "setting": "[14]", "result": "< 0.1 µM (active)"}]}, {"molecule": "OCCN1CCN(CCCN2c3ccccc3Sc3ccc(C(F)(F)F)cc32)CC1", "note": "[FLUPHENAZINE]", "values": [{"measurement": "IC50", "setting": "NADPH oxidase 1", "result": "> 17 µM (not active)"}]}]}
